FAM = 5(6)-carboxyfluorescein

In this assay the test system is NSC-34 cells. As to the kind of experiment: Evaluation of cell membrane permeability by flow cytometry (MFI of FAM fluorescence). It is filed as cell-based, mouse. As to conditions: for MFI: NSC-34 cells; for value of MFI compared with Reference Example 1 (FAM alone): 20 μM. As for the experimental part:
As a culture medium of the NSC-34 cell, 10% fetal bovine serum (FBS)-containing Dulbecco's modified Eagle's medium (DMEM (Cat No. 044-29765, manufactured by FUJIFILM Wako Pure Chemical Corporation)) was used. The samples 1 to 6 were each dissolved in dimethyl sulfoxide (DMSO) to prepare sample solutions 1 to 6 with a sample concentration of 4 mM. Then, the sample solutions were diluted in the culture medium to prepare 40 μM sample solutions 1 to 6.
The NSC-34 cell was suspended in the culture medium to prepare a cell suspension of 2×10^5 cells/mL. The cell suspension was added by 1 mL to a well of a commercially available six-hole (well) plate (manufactured by AGC TECHNO GLASS Co., Ltd.) so as to seed the NSC-34 cell to be 2× 10^5 cells/well. […] After that, the six-well plate was left at rest in a cell culture apparatus, and incubated for 20 hours at 37° C. under a 5% CO2 condition.
After the 20-hour incubation, the culture supernatant was removed from the well and the cells in the well were cleaned twice with 1 mL of PBS. Next, 100 μL of the 0.25% trypsin/EDTA solution was added to the well and the incubation was performed for three minutes at 37° C. After the incubation, 900 μL of the culture medium was added to the well to deactivate the trypsin. Subsequently, the cell suspension in the well was transferred to a tube and the cells were collected. This tube was subjected to five-minute centrifugal separation at 4° C. under a condition of 210×g. After the centrifugal separation, the supernatant was removed and the precipitate (cell pellet) was suspended (cleaned) with 1 mL of PBS, which was followed by the centrifugal separation under the same condition as that described above. After this operation was repeated twice, the supernatant was removed and thus, the cells (cell pellet) cultured in the culture medium containing the sample 1 were obtained.
Regarding the obtained cells (cell pellet), the cell membrane permeability of the sample 1 was analyzed using a flow cytometer. As the flow cytometer, On-Chip Flowcytometer (manufactured by On-Chip Biotechnologies Co., LTD.) was used.
For such an analysis, the obtained cell pellet was suspended with 100 μL of on-chip T buffer to prepare a cell suspension for analysis.
Using the aforementioned flow cytometer, gating based on forward scatter (FSC) and side scatter (SSC) was performed to set a gate about a cell group to be analyzed, and the fluorescence intensity was measured about the cell group in this gate. Note that the number of cells of the cell group was set to at least 10000 or more in the analysis. The fluorescence intensity was measured using a fluorescence detector FL2 of the flow cytometer (optimum detection wavelength around 543 nm) capable of detecting the fluorescence wavelength of FAM. Regarding this measurement result, the analysis was performed using commercially available analysis software “FlowJo” (manufactured by TreeStar) to obtain mean fluorescence intensity (MFI) of the cell group to be measured. […]

Setting [1] is: Test 1, sample/FAM concentration 20 μM in culture medium, 20 hours incubation at 37° C., detector FL2.
Where [2] appears, read: Test 2, sample/FAM concentration 25 μM in culture medium, otherwise similar to Test 1.

Take “5(6)-carboxyfluorescein [Reference Example 1, reference compound]”: the MFI is, setting by setting: under setting [1], 10.9; under setting [2], 13.1.

Ac-PD-FAM [Example 5]: the “value of MFI compared with Reference Example 1 (FAM alone)” value (Test 1) is reported as “lower”. Under setting [1], this substance yielded an MFI of 7.8.

Regarding Ac-PDPD-FAM [Example 1], the MFI under setting [1] amounted to 15.

For the substance “Ac-PDPDPDPDPDPDG-FAM (Ac-PDPDPDPDPDPDG-{FAM}) [Example 7, construct: N-terminally acetylated peptide 7 bonded to FAM]”, the MFI under setting [2] was 27.5.

Ac-PDPEG-FAM [Example 3] had an MFI under setting [1] of 18.9.

“Ac-PDPEPDPEPDPEG-FAM (Ac-PDPEPDPEPDPEG-{FAM}) [Example 9, construct: N-terminally acetylated peptide 9 bonded to FAM]”: the MFI under setting [2] came to 25.1.

As to Ac-PE-FAM [Example 6], for the setting “Test 1”, the “value of MFI compared with Reference Example 1 (FAM alone)” value is recorded as “lower”. The MFI under setting [1] was found to be 7.4.

Take Ac-PEPDG-FAM [Example 4]: the MFI under setting [1] is reported as 19.9.

Under setting [1], Ac-PEPE-FAM [Example 2] gave an MFI of 16.2.

“Ac-PEPEPEPEPEPEG-FAM (Ac-PEPEPEPEPEPEG-{FAM}) [Example 8, construct: N-terminally acetylated peptide 8 bonded to FAM]” displayed an MFI under setting [2] of 29.3.

(Values after patent US20260209270A1, “Synthetic Peptide And Construct” (TOAGOSEI CO., LTD., priority 2022, published 2026).)
